Assay results from patent US20230192700A1, “PYRAZOLOPYRAZINES ACTING ON CANCERS VIA INHIBITION OF CDK12” (Bayer Aktiengesellschaft, priority 2020, published 2023).
Where two headings read alike, the source gives them in different places.

Tests used:
[1] = system: MDA-MB-231 human breast cancer cells; experiment: Proliferation assay MDA-MB-231 (crystal violet); format: cell-based; settings: MDA-MB-231 cells, 4 days, median, read-out: Prolif-MDA MB231 IC50 - [mol/l] (median)
Method: 4. Proliferation assay: MDA-MB-231, CAL-120
Human tumour cells were originally obtained from the American Type Culture Collection (ATCC), or from the Deutsche Sammlung von Mikroorganismen and Zellkulturen (DSMZ, German Collection of Microorganisms and Cell Cultures). Cultivated tumour cells (CAL-120, human breast adenocarcinoma cells, DSMZ ACC-459; MDA-M B-231, human breast cancer cells, ATCC HTB-26) were plated at a density of 4,000 cells/well in a 96-well multititer plate in 200 microL of their respective growth medium supplemented 10% fetal calf serum. After 24 hours, the cells of one plate (zero-point plate) were stained with crystal violet (see below), while the medium of the other plates was supplemented with the test substances in various concentrations (0 micromol/L, as well as in the range of 0.01-10 micromol/L; the final concentration of the solvent dimethyl sulfoxide was adjusted to 0.1%) using a Tecan HP D300 Digital Dispenser. The cells were incubated for 4 days in the presence of test substances. Cell proliferation was determined by staining the cells with crystal violet: the cells were fixed by adding 20 microL/measuring point of an 11% glutaric aldehyde solution for 15 minutes at room temperature. After three washing cycles of the fixed cells with water, the plates were dried at room temperature. The cells were stained by adding 100 microL/measuring point of a 0.1% crystal violet solution (pH 3.0). After three washing cycles of the stained cells with water, the plates were dried at room temperature. The dye was dissolved by adding 100 microL/measuring point of a 10% acetic acid solution. The extinction was determined by photometry at a wavelength of 595 nm. The change of cell number, in percent, was calculated by normalization of the measured values to the extinction values of the zero-point plate(=0%) and the extinction of the untreated (0 μM) cells(=100%). The IC50 values (inhibitory concentration at 50% of maximal effect) were determined by means of a 4 parameter fit.

[2] = system: BRCA1 mRNA expression in MDA-MB-231 cells; experiment: qRT-PCR assay: inhibition of BRCA1 mRNA expression in MDA-MB-231 cells; format: cell-based, human; settings: Homo sapiens, MDA-MB-231, 24 h, 24 h exposure, BRCA1 mRNA normalised to GAPDH, median, read-out: RTqPCR-MDA-MB-231 IC50 [mol/l] BRCA1 (median)
Method: 3. qRT-PCR Assay: BRCA1, ATR, MCL1 in MDA-MB-231, CAL-120
Tissue cultured human MDA-MB-231 human breast cancer cells were plated in 500 microL per well at 200,000 cells/well in a 24 well microtiter plate. After 24 h, the cells were exposed continuously for 24 h to test substances (substances were added with Tecan HP D300 Dispenser). RNA was prepared using Qiagen RNeasy MiniKit (#74106), RNA was quantified using a NanoDrop Equipment, and 600 nano gamms of RNA was coverted to cDNA using a SuperScript VILO kit (Thermofisher #11755050) followed by qPCR amplification. BRCA1 and ATR gene expression was measured by RT-qPCR and normalised to GAPDH housekeeping gene expression. qPCR primer sets have been purchased from Thermo Fisher Scientific/Applied Biosystems: BRCA1, # Hs 01556193; ATR, #Hs 00992123; GAPDH, #Hs 03929097.

Row | Structure (SMILES) | IC50 ([1]; Homo sapiens, MDA-MB-231, 96 h) | further results
1 | COCCC(C)n1nc(NCc2nc3ccccc3[nH]2)c2ncc(C3CC3)nc21 (racemic) [Example 57, (±)-N-[(1H-benzimidazol-2-yl)methyl]-6-cyclopropyl-1-(4-methoxybutan-2-yl)-1H-pyrazolo[3,4-b]pyrazin-3-amine] | 241 nM | –
2 | COCCCn1nc(NCc2nc3ccccc3[nH]2)c2ncc(C3CC3)nc21 [Example 61, N-[(1H-benzimidazol-2-yl)methyl]-6-cyclopropyl-1-(3-methoxypropyl)-1H-pyrazolo[3,4-b]pyrazin-3-amine] | 335 nM | –
3 | CN1CCC(n2nc(NCc3nc4c(F)c(F)ccc4[nH]3)c3ncc(C4CC4)nc32)CC1 [Example 9, 6-cyclopropyl-N-[(4,5-difluoro-1H-benzimidazol-2-yl)methyl]-1-(1-methylpiperidin-4-yl)-1H-pyrazolo[3,4-b]pyrazin-3-amine] | 41.2 nM | –
4 | COCCn1nc(NCc2nc3ccccc3[nH]2)c2ncc(C3CC3)nc21 [Example 65, N-[(1H-benzimidazol-2-yl)methyl]-6-cyclopropyl-1-(2-methoxyethyl)-1H-pyrazolo[3,4-b]pyrazin-3-amine] | 437 nM | –
5 | CN1CCC(n2nc(NCc3nc4c(C(F)(F)F)cccc4[nH]3)c3ncc(C4CC4)nc32)CC1 [Example 7, 6-cyclopropyl-1-(1-methylpiperidin-4-yl)-N-{[4-(trifluoromethyl)-1H-benzimidazol-2-yl]methyl}-1H-pyrazolo[3,4-b]pyrazin-3-amine] | 39.1 nM | –
6 | CC(CCN(C)C)n1nc(NCc2nc3ccccc3[nH]2)c2ncc(C3CC3)nc21 (single isomer, unassigned) [Example 63, (+) or (−)-N-[(1H-benzimidazol-2-yl)methyl]-6-cyclopropyl-1-[4-(dimethylamino)butan-2-yl]-1H-pyrazolo[3,4-b]pyrazin-3-amine] | – | IC50 [1]: 1780 nM
7 | CC(C)n1nc(NCc2nc3ccccc3[nH]2)c2ncc(C3CC3)nc21 [Example 14, N-[(1H-benzimidazol-2-yl)methyl]-6-cyclopropyl-1-(propan-2-yl)-1H-pyrazolo[3,4-b]pyrazin-3-amine] | – | IC50 [2]: 42.9 nM
8 | O[C@H]1C[C@H](Cn2nc(NCc3nc4ccccc4[nH]3)c3ncc(C4CC4)nc32)C1 [Example 70, trans-3-[(3-{[(1H-benzimidazol-2-yl)methyl]amino}-6-cyclopropyl-1H-pyrazolo[3,4-b]pyrazin-1-yl)methyl]cyclobutan-1-ol] | 174 nM | –
9 | c1ccc2[nH]c(CNc3nn(C4CCOC4)c4nc(C5CC5)cnc34)nc2c1 (racemic) [Example 10, (±)-N-[(1H-benzimidazol-2-yl)methyl]-6-cyclopropyl-1-[oxolan-3-yl]-1H-pyrazolo[3,4-b]pyrazin-3-amine] | 151 nM | –
10 | CN1CCC(n2nc(NCc3nc4ccccc4[nH]3)c3ncc(C4CC4)nc32)C1 (single isomer, unassigned) [Example 79, (−) or (+)-N-[(1H-benzimidazol-2-yl)methyl]-6-cyclopropyl-1-(1-methylpyrrolidin-3-yl)-1H-pyrazolo[3,4-b]pyrazin-3-amine] | – | IC50 [1]: 217 nM
11 | CN(C)CCn1nc(NCc2nc3ccccc3[nH]2)c2ncc(C3CC3)nc21 [Example 68, N-[(1H-benzimidazol-2-yl)methyl]-6-cyclopropyl-1-[2-(dimethylamino)ethyl]-1H-pyrazolo[3,4-b]pyrazin-3-amine] | 645 nM | –
12 | OC1(Cn2nc(NCc3nc4ccccc4[nH]3)c3ncc(C4CC4)nc32)CCCC1 [Example 73, 1-[(3-{[(1H-benzimidazol-2-yl)methyl]amino}-6-cyclopropyl-1H-pyrazolo[3,4-b]pyrazin-1-yl)methyl]cyclopentan-1-ol] | 141 nM | –
13 | FC1(F)CCC(n2nc(NCc3nc4ccccc4[nH]3)c3ncc(C4CC4)nc32)CC1 [Example 36, N-[(1H-benzimidazol-2-yl)methyl]-6-cyclopropyl-1-(4,4-difluorocyclohexyl)-1H-pyrazolo[3,4-b]pyrazin-3-amine] | 114 nM | –
14 | OCCCn1nc(NCc2nc3ccccc3[nH]2)c2ncc(C3CC3)nc21 [Example 60, 3-(3-{[(1H-benzimidazol-2-yl)methyl]amino}-6-cyclopropyl-1H-pyrazolo[3,4-b]pyrazin-1-yl)propan-1-ol] | 235 nM | –
15 | c1ccc2[nH]c(CNc3nn(C4CCNCC4)c4nc(C5CC5)cnc34)nc2c1 [Example 12, N-[(1H-benzimidazol-2-yl)methyl]-6-cyclopropyl-1-(piperidin-4-yl)-1H-pyrazolo[3,4-b]pyrazin-3-amine] | 38.3 nM | –
16 | OCCn1nc(NCc2nc3ccccc3[nH]2)c2ncc(C3CC3)nc21 [Example 66, 2-(3-{[(1H-benzimidazol-2-yl)methyl]amino}-6-cyclopropyl-1H-pyrazolo[3,4-b]pyrazin-1-yl)ethan-1-ol] | 386 nM | –
17 | c1ccc2[nH]c(CNc3nn(C4CCC4)c4nc(C5CC5)cnc34)nc2c1 [Example 49, N-[(1H-benzimidazol-2-yl)methyl]-1-cyclobutyl-6-cyclopropyl-1H-pyrazolo[3,4-b]pyrazin-3-amine] | 200 nM | –
18 | CC(C)(C)OC(=O)N1CCC(n2nc(NCc3nc4ccccc4[nH]3)c3ncc(C4CC4)nc32)CC1 [Example 11, tert-butyl 4-(3-{[(1H-benzimidazol-2-yl)methyl]amino}-6-cyclopropyl-1H-pyrazolo[3,4-b]pyrazin-1-yl)piperidine-1-carboxylate] | 176 nM | –
19 | CC(CCN(C)C)n1nc(NCc2nc3ccccc3[nH]2)c2ncc(C3CC3)nc21 (single isomer, unassigned) [Example 64, (−) or(+)-N-[(1H-benzimidazol-2-yl)methyl]-6-cyclopropyl-1-[4-(dimethylamino)butan-2-yl]-1H-pyrazolo[3,4-b]pyrazin-3-amine] | – | IC50 [1]: 536 nM
20 | OCC1(Cn2nc(NCc3nc4ccccc4[nH]3)c3ncc(C4CC4)nc32)CCC1 [Example 74, {1-[(3-{[(1H-benzimidazol-2-yl)methyl]amino}-6-cyclopropyl-1H-pyrazolo[3,4-b]pyrazin-1-yl)methyl]cyclobutyl}methanol] | 251 nM | –
21 | c1ccc2[nH]c(CNc3nn(CC4CCC4)c4nc(C5CC5)cnc34)nc2c1 [Example 75, N-[(1H-benzimidazol-2-yl)methyl]-1-(cyclobutylmethyl)-6-cyclopropyl-1H-pyrazolo[3,4-b]pyrazin-3-amine] | 376 nM | –
22 | OC1(Cn2nc(NCc3nc4ccccc4[nH]3)c3ncc(C4CC4)nc32)CCC1 [Example 72, 1-[(3-{[(1H-benzimidazol-2-yl)methyl]amino}-6-cyclopropyl-1H-pyrazolo[3,4-b]pyrazin-1-yl)methyl]cyclobutan-1-ol] | 109 nM | –
23 | Cc1cnc2c(NCc3nc4ccccc4[nH]3)nn(C3CCN(C)CC3)c2n1 [Example 77, N-[(1H-benzimidazol-2-yl)methyl]-6-methyl-1-(1-methylpiperidin-4-yl)-1H-pyrazolo[3,4-b]pyrazin-3-amine] | 3000 nM | –
24 | Cc1cccc2[nH]c(CNc3nn(C4CCN(C)CC4)c4nc(C5CC5)cnc34)nc12 [Example 8, 6-cyclopropyl-N-[(4-methyl-1H-benzimidazol-2-yl)methyl]-1-(1-methylpiperidin-4-yl)-1H-pyrazolo[3,4-b]pyrazin-3-amine] | 39.6 nM | –
25 | CC(C)(O)Cn1nc(NCc2nc3ccccc3[nH]2)c2ncc(C3CC3)nc21 [Example 69, 1-(3-{[(1H-benzimidazol-2-yl)methyl]amino}-6-cyclopropyl-1H-pyrazolo[3,4-b]pyrazin-1-yl)-2-methylpropan-2-ol] | 311 nM | –
26 | CC(CCN(C)C)n1nc(NCc2nc3ccccc3[nH]2)c2ncc(C3CC3)nc21 (racemic) [Example 62, (±)-N-[(1H-benzimidazol-2-yl)methyl]-6-cyclopropyl-1-[4-(dimethylamino)butan-2-yl]-1H-pyrazolo[3,4-b]pyrazin-3-amine] | 873 nM | –
27 | CC1COCCC1n1nc(NCc2nc3ccccc3[nH]2)c2ncc(C3CC3)nc21 (racemic) [Example 42, (±)-cis/trans-N-[(1H-benzimidazol-2-yl)methyl]-6-cyclopropyl-1-(3-methyloxan-4-yl)-1H-pyrazolo[3,4-b]pyrazin-3-amine] | 148 nM | –
